Key:
[1] = tested on: brain lesions / LC function; conditions: animal studies, literature; cited from earlier work
[2] = tested on: post-stroke depression and fatigue; experiment: Case History No. 2: depression and fatigue after stroke; type: in vivo, human; conditions: person; antidepressant alone

Structure (SMILES)	effect on LC function and recovery of motor function after brain lesions [1]	effect on post-stroke depression and fatigue [2]
CNCCCN1c2ccccc2CCc2ccccc21 [desipramine]	able to enhance	–
CNCCC(Oc1ccc(C(F)(F)F)cc1)c1ccccc1 (stereo not shown) [fluoxetine]	–	without much success
CN(C)CCCN1c2ccccc2CCc2ccccc21 [imipramine]	–	without much success
CN(CCCN1c2ccccc2CCc2ccccc21)CC(=O)c1ccc(Cl)cc1 [lofepramine]	–	without much success

— patent publication US6441038B1, “Treatment of fatigue, head injury and stroke” (Laxdale Limited, priority 1999, dated 2002)
